Assay results taken from PMC2869451 (Journal of medicinal chemistry, 2009).

Molecular target: S-adenosylmethionine synthetase (MAT, cMAT) (Escherichia coli, UniProt P0A817)
Assay: […]-methionine incorporation into AdoMet with purified enzyme
Assay type: biochemical

Chain of S-adenosylmethionine synthetase (MAT, cMAT) (P0A817 2-384): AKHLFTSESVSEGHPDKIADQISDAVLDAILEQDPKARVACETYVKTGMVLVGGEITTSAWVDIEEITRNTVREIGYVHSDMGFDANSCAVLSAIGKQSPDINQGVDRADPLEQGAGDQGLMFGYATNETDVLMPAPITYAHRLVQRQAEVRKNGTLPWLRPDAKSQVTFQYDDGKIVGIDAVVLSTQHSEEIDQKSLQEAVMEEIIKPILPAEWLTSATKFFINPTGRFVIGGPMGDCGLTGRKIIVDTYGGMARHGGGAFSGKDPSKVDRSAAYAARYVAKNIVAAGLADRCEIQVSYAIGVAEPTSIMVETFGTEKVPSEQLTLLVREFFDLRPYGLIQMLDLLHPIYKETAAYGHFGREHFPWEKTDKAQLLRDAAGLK

CCOc1ccccc1NC(=O)NCC(=O)NNC(=O)Nc1cc([N+](=O)[O-])ccc1C [compound 1, 1-(3-(2-ethoxyphenyl)ureidoacetyl)-4-(2-methyl-5-nitrophenyl)semicarbazide]
Ki: 1.9 ± 0.8 nM
